According to patent US20230202989A1, “COMPOUNDS” (JANSSEN PHARMACEUTICA NV, priority 2020, published 2023):
Where two headings read alike, the source gives them in different places.

Key:
[1] = tested on: IL-1β; experiment: PBMC assay: inhibition of IL-1β release after LPS stimulation (MSD); assay type: cell-based; details: human PBMCs, 100 ng/ml LPS for 6 hrs, MSD, 96 well plates, read-out: IL1β IC50
Procedure: Peripheral venous blood s collected from health individuals and human peripheral blood mononuclear cells (PBMCs) ere isolated from blood by Ficoll Histopaque (Sigma-Aldrich, A0561) density gradient centrifugation. After isolation, PBMCs were stored in liquid nitrogen for later use. Upon thawing, PBMC cell viability was determined in growth medium (RPMI media supplemented with 10% fetal bovine serum, 1% Pen-Strep and 1% L-glutamine). […] PBMCs were added at a density of 7.5×10^4 cells per well and incubated for 30 min in a 5% CO2 incubator at 37° C. LPS stimulation was performed by addition of 100 ng/ml LPS (final concentration, Invivogen, tlrl-smlps) for 6 hrs followed by collection of cellular supernatant and the analysis of IL-1β (μM) and TNF cytokines levels (μM) via MSD technology according to manufacturers' guidelines (MSD, K151A0H).
(§1) The IC50 values (for IL-1β) and EC50 values (TNF) were obtained on compounds of the invention/examples, and are depicted in the following table: […]

[2] = tested on: TNF; experiment: PBMC assay: TNF cytokine levels after LPS stimulation (MSD); assay type: cell-based; details: human PBMCs, 100 ng/ml LPS for 6 hrs
Procedure: Peripheral venous blood s collected from health individuals and human peripheral blood mononuclear cells (PBMCs) ere isolated from blood by Ficoll Histopaque (Sigma-Aldrich, A0561) density gradient centrifugation. After isolation, PBMCs were stored in liquid nitrogen for later use. Upon thawing, PBMC cell viability was determined in growth medium (RPMI media supplemented with 10% fetal bovine serum, 1% Pen-Strep and 1% L-glutamine). Compounds were spotted in a 1:3 serial dilution in DMSO and diluted to the final concentration in 30 μl medium in 96 well plates (Falcon, 353072). PBMCs were added at a density of 7.5×10^4 cells per well and incubated for 30 min in a 5% CO2 incubator at 37° C. LPS stimulation was performed by addition of 100 ng/ml LPS (final concentration, Invivogen, tlrl-smlps) for 6 hrs followed by collection of cellular supernatant and the analysis of IL-1β (μM) and TNF cytokines levels (μM) via MSD technology according to manufacturers' guidelines (MSD, K151A0H).
as §1

Compound | IC50 ([1]; Homo sapiens, PBMC, 6 h) | EC50 ([2]; Homo sapiens, PBMC, 6 h) | IC50 [1] | EC50 [2]
CC(C)c1nn(CC(=O)Nc2ccc3nccn3c2)c(=O)c2ccc(C(F)(F)F)cc12 [Final Cpd X31] | 233 nM | > 20000 nM |  | 
O=C(Cn1nc(C(F)F)c2cc(C(F)(F)F)ccc2c1=O)Nc1ccc2nncn2c1 [Final Cpd X32] | 235 nM | > 20000 nM |  | 
CC(C)c1nn(CC(=O)Nc2ccc(=O)n(C)n2)c(=O)c2ccc(C(F)(F)F)cc12 [Final Cpd X33] | 252 nM | > 20000 nM |  | 
O=C(Cn1nc(C2CC2)c2cc(C(F)(F)F)ccc2c1=O)Nc1ccc2nncn2n1 [Final Cpd X34] | 255 nM | > 20000 nM |  | 
CC(C)c1nn(CC(=O)N[C@H]2C[C@](O)(C(F)(F)F)C2)c(=O)c2ccc(C(F)(F)F)cc12 [Final Cpd X35] |  | > 20000 nM | 303 nM | 
C[C@]1(O)C[C@@H](NC(=O)Cn2nc(C(F)F)c3cc(C(F)(F)F)ccc3c2=O)C1 [Final Cpd X36] | 304 nM | > 20000 nM |  | 
CCN1C[C@H](F)C[C@@H](NC(=O)Cn2nc(C(C)C)c3cc(C(F)(F)F)ccc3c2=O)C1 [Final Cpd X37] | 316 nM | > 20000 nM |  | 
CC(C)c1nn(CC(=O)Nc2ccc3ncnn3c2)c(=O)c2ccc(C(F)(F)F)cc12 [Final Cpd X38] | 331 nM | > 20000 nM |  | 
CC(C)c1nn(CC(=O)Nc2cc(C(F)F)[nH]n2)c(=O)c2ccc(C(F)(F)F)cc12 [Final Cpd X39] | 347 nM | 12600 nM |  | 
CC(C)c1nn(CC(=O)Nc2ccc(=O)n(CCN(C)C)n2)c(=O)c2ccc(C(F)(F)F)cc12 [Final Cpd X40] | 349 nM | > 20000 nM |  | 
CC(C)c1nn(CC(=O)N[C@H]2CC[C@@H](O)CC2)c(=O)c2ccc(C(F)(F)F)cc12 [Final Cpd X42] | 353 nM | 15000 nM |  | 
CC(C)c1nn(CC(=O)N[C@H]2CC[C@H](O)CC2)c(=O)c2ccc(C(F)(F)F)cc12 [Final Cpd X44] | 374 nM | > 20000 nM |  | 
O=C(Cn1nc(C2CC2)c2cc(C(F)(F)F)ccc2c1=O)N[C@H]1CN(C2CC2)CC[C@H]1O [Final Cpd X45] | 384 nM | > 20000 nM |  | 
CC(C)c1nn(CC(=O)N[C@H]2CC[C@@](C)(O)CC2)c(=O)c2ccc(C(F)(F)F)cc12 [Final Cpd X46] | 388 nM | > 20000 nM |  | 
CC(C)c1nn(CC(=O)Nc2ccc3ncn(C)c3n2)c(=O)c2ccc(C(F)(F)F)cc12 [Final Cpd X47, 2-(4-isopropyl-1-oxo-6-(trifluoromethyl)phthalazin-2(1H)-yl)-N-(3-methyl-3H-imidazo[4,5-b]pyridin-5-yl)acetamide] | 394 nM | > 20000 nM |  | 
Cc1ncc2ccc(NC(=O)Cn3nc(C(C)C)c4cc(C(F)(F)F)ccc4c3=O)cn12 [Final Cpd X48] | 398 nM | > 20000 nM |  | 
CC(C)c1nn(CC(=O)Nc2ccc3nnn(C)c3c2)c(=O)c2ccc(C(F)(F)F)cc12 [Final Cpd X49] | 400 nM | 9700 nM |  | 
O=C(Cn1nc(C(F)F)c2cc(C(F)(F)F)ccc2c1=O)Nc1ccncn1 [Final Cpd X50] | 438 nM | > 20000 nM |  | 
Cc1cc(NC(=O)Cn2nc(C(C)C)c3cc(C(F)(F)F)ccc3c2=O)nn(C)c1=O [Final Cpd X51] | 440 nM | > 20000 nM |  | 
CC(C)c1nn(CC(=O)Nc2cc(Br)c3nncn3c2)c(=O)c2ccc(C(F)(F)F)cc12 [Final Cpd X52, N-(8-Bromo-[1,2,4]triazolo[4,3-a]pyridin-6-yl)-2-(4-isopropyl-1-oxo-6-(trifluoromethyl)phthalazin-2(1H)-yl)acetamide] | 442 nM | > 20000 nM |  | 
Cc1cn2nc(NC(=O)Cn3nc(C(C)C)c4cc(C(F)(F)F)ccc4c3=O)ccc2n1 [Final Cpd X53] | 444 nM | > 20000 nM |  | 
CC(C)c1nn(CC(=O)Nc2ccn3ccnc3c2)c(=O)c2ccc(C(F)(F)F)cc12 [Final Cpd X54] | 451 nM | > 20000 nM |  | 

Compound | IC50 ([1]; Homo sapiens, PBMC, 6 h) | EC50 ([2]; Homo sapiens, PBMC, 6 h) | IC50 [1] | EC50 [2]
CC(C)c1nn(CC(=O)N[C@H]2CCc3nncn3C2)c(=O)c2ccc(C(F)(F)F)cc12 [Final Cpd X55] | 460 nM | > 20000 nM |  | 
CC(C)c1nn(CC(=O)N[C@H]2CC[C@@H]2O)c(=O)c2ccc(C(F)(F)F)cc12 [Final Cpd X56] | 493 nM | > 20000 nM |  | 
Cc1nc2ccc(NC(=O)Cn3nc(C(C)C)c4cc(C(F)(F)F)ccc4c3=O)cn2n1 [Final Cpd X57] | 545 nM | > 20000 nM |  | 
CC(=O)c1nn(CC(=O)Nc2ccc3nncn3c2)c(=O)c2ccc(C(F)(F)F)cc12 [Final Cpd X58] | 551 nM | > 20000 nM |  | 
CC(c1nn(CC(=O)Nc2ccc3nncn3c2)c(=O)c2ccc(C(F)(F)F)cc12)C(F)(F)F (centres unmarked) [Final Cpd X59] | 561 nM | > 20000 nM |  | 
CC(C)c1nn(CC(=O)N[C@H]2CCCN3CCC[C@@H]23)c(=O)c2ccc(C(F)(F)F)cc12 [Final Cpd X60] | 585 nM | > 20000 nM |  | 
O=C(Cn1nc(C(O)C(F)(F)F)c2cc(C(F)(F)F)ccc2c1=O)Nc1ccc2nncn2c1 (centres unmarked) [Final Cpd X61] | 588 nM | > 20000 nM |  | 
COCCn1nc(NC(=O)Cn2nc(C(C)C)c3cc(C(F)(F)F)ccc3c2=O)ccc1=O [Final Cpd X62] | 591 nM | > 20000 nM |  | 
CC(C)c1nn(CC(=O)Nc2ccc3nnc(Cl)n3n2)c(=O)c2ccc(C(F)(F)F)cc12 [Final Cpd X63] | 600 nM | > 20000 nM |  | 
CC(C)c1nn(CC(=O)Nc2ccc3nc(C(F)(F)F)cn3c2)c(=O)c2ccc(C(F)(F)F)cc12 [Final Cpd X64, 2-(4-isopropyl-1-oxo-6-(trifluoromethyl)phthalazin-2(1H)-yl)-N-(2-(trifluoromethyl)imidazo[1,2-a]pyridin-6-yl)acetamide] | 668 nM | > 20000 nM |  | 
CC(C)c1nn(CC(=O)N[C@H]2C[C@](O)(C(F)(F)F)C2)c(=O)c2ccc(C(F)(F)F)cc12 [Final Cpd X65] |  |  | 668 nM | > 20000 nM
CC(O)c1nn(CC(=O)Nc2ccc3nncn3c2)c(=O)c2ccc(C(F)(F)F)cc12 (centres unmarked) [Final Cpd X66] | 670 nM | > 20000 nM |  | 
CC(C)c1nn(CC(=O)N[C@H]2C[C@@H](O)C2)c(=O)c2ccc(C(F)(F)F)cc12 [Final Cpd X67] | 679 nM | > 20000 nM |  | 
Cc1nnc2n1CC(NC(=O)Cn1nc(C(C)C)c3cc(C(F)(F)F)ccc3c1=O)CC2 (centres unmarked) [Final Cpd X68] | 728 nM | > 20000 nM |  | 
CC(C)c1nn(CC(=O)Nc2ncnc3c2ncn3C)c(=O)c2ccc(C(F)(F)F)cc12 [Final Cpd X69] | 735 nM | > 20000 nM |  | 
CC(C)c1nn(CC(=O)N[C@H]2CN(CC[C@@H](C)O)CC[C@H]2O)c(=O)c2ccc(C(F)(F)F)cc12 [Final Cpd X70] | 740 nM | > 20000 nM |  | 
CC(C)c1nn(CC(=O)Nc2ccc3nncn3c2)c(=O)c2c(F)cc(C(F)(F)F)cc12 [Final Cpd X71] | 751 nM | > 20000 nM |  | 
CC(C)c1nn(CC(=O)Nc2cnc3nccn3c2)c(=O)c2ccc(C(F)(F)F)cc12 [Final Cpd X73] | 792 nM | > 20000 nM |  | 
Cc1c(NC(=O)Cn2nc(C(C)C)c3cc(C(F)(F)F)ccc3c2=O)ccc2nccn12 [Final Cpd X74] | 804 nM | > 20000 nM |  | 
CC(O)c1nn(CC(=O)N[C@H]2C[C@@](C)(O)C2)c(=O)c2ccc(C(F)(F)F)cc12 (some centres unmarked) [Final Cpd X75] | 818 nM | > 20000 nM |  | 
O=C(Cn1nc(CCC(F)(F)F)c2cc(C(F)(F)F)ccc2c1=O)Nc1ccc2nncn2c1 [Final Cpd X76] |  |  | 829 nM | > 20000 nM
